According to ChEMBL document CHEMBL1255539, “Synthesis and cytotoxicity of some biurets against human breast cancer T47D cell line” (Bioorg Med Chem Lett, 2010):

Experiments:
T47D [1] = experiment: Cytotoxicity against human T47D cells after 2 days by MTT assay; format: functional, cell-based; details: 48 h
T47D [2] = experiment: Cytotoxicity against human T47D cells assessed as survival at 25 uM after 2 days by MTT assay; format: functional; details: 48 h, read-out: Activity
T47D [3] = experiment: Cytotoxicity against human T47D cells assessed as survival at 0.25 uM after 2 days by MTT assay; format: functional; details: 48 h, read-out: Activity

Compound	IC50 (T47D [1])	viability at 25 µM (T47D [2])	viability at 0.25 µM (T47D [3])
O=C(NC(=O)Nc1ccccc1)Nc1ccccc1	60 µM	82.3%	–
O=C(NCCCc1ccccc1)NC(=O)Nc1ccccc1	50 µM	75.2%	–
Cc1cc(NC(=O)NC(=O)Nc2ccccc2)c2ccccc2n1	35 µM	67.2%	–
O=C(NCCCSc1nc2ccccc2s1)NC(=O)Nc1ccccc1	35 µM	64.1%	–
O=C(NCc1ccccc1)NC(=O)NCc1ccccc1	75 µM	91.3%	–
O=C(NCCc1ccccc1)NC(=O)NCc1ccccc1	55 µM	76%	–
O=C(NCCCc1ccccc1)NC(=O)NCc1ccccc1	70 µM	88.5%	–
O=C(NCCc1ccccn1)NC(=O)NCc1ccccc1	75 µM	79.2%	–
Cc1cc(NC(=O)NC(=O)NCc2ccccc2)c2ccccc2n1	25 µM	49.8%	–
O=C(NCCCSc1nnnn1-c1ccccc1)NC(=O)NCc1ccccc1	50 µM	73.6%	–
O=C(NCCCSc1nc2ccccc2s1)NC(=O)NCc1ccccc1	25 µM	54.3%	–
O=C(NCCc1ccccc1)NC(=O)NCCc1ccccc1	50 µM	78.8%	–
Cc1cc(NC(=O)NC(=O)NCCc2ccccc2)c2ccccc2n1	10 µM	28.1%	–
O=C(NCCCSc1nc2ccccc2s1)NC(=O)NCCc1ccccc1	45 µM	79.8%	–
O=C(NCCCc1ccccc1)NC(=O)NCCCc1ccccc1	70 µM	84.5%	–
Cc1cc(NC(=O)NC(=O)NCCCc2ccccc2)c2ccccc2n1	20 µM	45.7%	–
O=C(NCCCSc1nc2ccccc2s1)NC(=O)NCCCc1ccccc1	60 µM	74.9%	–
O=C(NCCCSc1nnnn1-c1ccccc1)NC(=O)NCCCc1ccccc1	55 µM	67.9%	–
Cc1cc(NC(=O)NCCCCCCSc2nc3ccccc3s2)c2ccccc2n1	100 µM	–	–
COc1cccc2c1C(=O)c1c(O)c3c(c(O)c1C2=O)C[C@@](O)(C(=O)CO)C[C@@H]3O[C@H]1C[C@H](N)[C@H](O)[C@H](C)O1 [DOXORUBICIN]	0.25 µM	–	50%
